Experimental data from patent publication US10842793B2, “Inhibitors of the unconventional secretion of fibroblast growth factor 2 (FGF2) by tumor cells and uses thereof” (Universität Heidelberg, priority 2016, dated 2020).
“Also recorded” adds a separate entry of the source.

Legend:
[1] = molecular target: T1, GST-NΔ173 Tec (auto-phosphorylation) (Homo sapiens, UniProt P42680); test: In vitro Tec kinase auto-phosphorylation; type: biochemical; conditions: 50 μM compound; for effect on NΔ173 Tec auto-phosphorylation in the presence of STAP1: STAP1 present; for inhibition of Tec auto-phosphorylation in the absence of a substrate: no FGF2, FIGS. 7B and 7E
T1 construct: made in house; host or cells: SF9 insect cells (baculovirus)
T1 sequence (P42680 174-631, stated change not applied): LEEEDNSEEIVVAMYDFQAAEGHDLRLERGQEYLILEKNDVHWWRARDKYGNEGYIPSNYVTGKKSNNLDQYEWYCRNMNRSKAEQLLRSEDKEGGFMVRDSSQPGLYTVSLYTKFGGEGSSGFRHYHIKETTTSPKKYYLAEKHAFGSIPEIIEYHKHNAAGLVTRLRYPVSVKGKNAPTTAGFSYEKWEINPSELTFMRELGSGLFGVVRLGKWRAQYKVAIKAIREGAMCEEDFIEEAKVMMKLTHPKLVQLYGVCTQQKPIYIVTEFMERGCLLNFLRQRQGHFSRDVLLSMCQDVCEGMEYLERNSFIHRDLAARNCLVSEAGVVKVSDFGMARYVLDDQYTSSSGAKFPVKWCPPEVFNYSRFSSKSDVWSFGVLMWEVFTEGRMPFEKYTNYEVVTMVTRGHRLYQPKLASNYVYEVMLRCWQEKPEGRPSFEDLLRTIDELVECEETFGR
Experimental: FGF2 tyrosine phosphorylation and Tec kinase auto-phosphorylation were reconstituted with purified components based on a Western analysis using anti-phosphotyrosine antibodies directed against an FGF2-derived phosphopeptide. In vitro phosphorylation experiments were conducted in the absence (1% DMSO mock control) and presence of the small molecule inhibitors (#6, #14, #21; 50 μM in 1% DMSO) and control compounds (#18, #19; 50 μM in 1% DMSO) introduced in FIGS. 4 and 5. Fluorescent secondary antibodies were used to detect antigens employing the LI-COR Odyssey imaging platform. M=PageRuler Prestained Protein Ladder. For details, see Experimental Procedures.
FGF2 and STAP1 tyrosine phosphorylation as well as Tec kinase auto-phosphorylation were analyzed as described in the legend to FIG. 6 and in Experimental Procedures. In vitro phosphorylation experiments were conducted in the absence (1% DMSO mock control) and presence of the small molecule inhibitors (#6, #14, #21; 50 μM in 1% DMSO) and control compounds (#18, #19; 50 μM in 1% DMSO) introduced in FIGS. 4 and 5. A Western analysis was conducted using anti-phosphotyrosine antibodies (anti-pY-FGF2 for FGF2 and Tec as well as anti-pY-4G10 for STAP1). M=PageRuler Prestained Protein Ladder: 140, 115, 80, 65, 50, 40, 30, 25, 15, 10 kDa. Fluorescent secondary antibodies were used to detect and quantify antigens using the LI-COR Odyssey imaging platform. In panels D, E and F, following normalization based upon background signals detected in the absence of Tec kinase or ATP, the average of the signals detected under mock conditions was defined as 100% activity. Standard deviations are shown. A one-tailed and unpaired T-test was conducted to assess statistical significance (* p<0.05, ** p<0.01, *** p<0.001, **** p<0.0001). “NS” indicates absence of significant differences.
A Tec kinase in vitro phosphorylation assay was established to test the inhibitory potential and selectivity of the small molecule inhibitors reported in this study (FIGS. 6 and 7). Tyrosine phosphorylation of FGF2 and STAP1, another established substrate of Tec kinase, was tested in a final volume of 100 μl (60 mM Hepes pH 7.5, 3 mM MgCl2, 20 μM ATP, 3 μM Sodium orthovanadate, 1.2 mM DTT, 50 ng/μl PEG 20000, 0.05% w/v Tween 20, 0.001% BSA). GST-NΔ173Tec (60 nM) was incubated in the absence (1% DMSO mock control) or presence of each compound (50 μM in 1% DMSO). Where indicated, reactions contained 250 nM of either FGF2 or 250 nM STAP1 (Hölzel Diagnostika, # GWB-P0486E-100). Following incubation at 30° C. for 45 minutes (corresponding to the midpoint of linear product formation), the reaction was terminated using SDS sample buffer and boiling for 4 minutes at 95° C. […] Phosphorylation levels of GST-NΔ173 Tec (auto-phosphorylation), FGF2 and STAP1 were quantified by a Western analysis using polyclonal anti-phosphotyrosine antibodies raised against a FGF2-derived synthetic peptide containing a phosphorylated tyrosine residue (ANRpYLAMKED; SEQ ID NO: 1). […] Phosphorylation levels of STAP1 were monitored using a monoclonal anti-phosphotyrosine antibody (clone 4G10®, #05-321, Merck Millipore). Appropriate fluorescent secondary antibodies (goat anti-rabbit IgG conjugated with Alexa Fluor® 680, # A-21076, Life Technologies; goat anti-mouse IgG conjugated with Alexa Fluor® 680, # A-21057, Life Technologies) were used to quantify all antigens employing the LI-COR Odyssey infrared imaging platform. […]

[2] = Observation of compound aggregates in cell culture media; type: physicochemical; conditions: 25 and 50 μM

| inhibition of Tec auto-phosphorylation in the absence of a substrate [1] | Structure (SMILES) | effect on NΔ173 Tec auto-phosphorylation in the presence of STAP1 [1] | solubility / aggregates of compound [2] |
| --- | --- | --- | --- |
| particularly evident | COC(=O)c1c(C)[nH]c(C(=O)OCc2cc(=O)n3c(C)cccc3n2)c1C [compound #6] | neither auto-phosphorylation of NΔ173 Tec nor tyrosine phosphorylation of STAP1 is affected | – |
| – | CC(=O)c1c(C)[nH]c(C(=O)OCc2cc(=O)n3cc(Br)ccc3n2)c1C [compound #14] | neither auto-phosphorylation of NΔ173 Tec nor tyrosine phosphorylation of STAP1 is affected | – |
| particularly evident | CC(=O)c1c(C)[nH]c(C(=O)CSc2nc3cc(Cl)cnc3[nH]2)c1C [compound #21] | neither auto-phosphorylation of NΔ173 Tec nor tyrosine phosphorylation of STAP1 is affected | aggregates of compound #21 were increasingly observable at concentrations of 25 and 50 μM; also recorded: solubility issues |
